Laboratory results reported in patent US20220339135A1, “COMPOSITIONS AND METHODS FOR MODULATING AN INFLAMMATORY RESPONSE” (Enzychem Lifesciences Corporation, priority 2019, published 2022).
Where “and” joins values, the source holds several entries; their conditions need not be identical. Identical values can stand only once.

Test system: 5-FU-induced neutropenia
Assay: 5-FU-induced neutropenia in mice
Assay type: in vivo
Conditions: for Mean Duration of Neutropenia in Days (±SE, range) / Mean the First Day Neutropenia (ANC <500 cells/μL) (±SE, range): 5-FU 100 mg/kg
Experimental: Male BALB/c mice (8 weeks of age) were randomly divided into 3 cohorts; control cohort (n=5), EC-18 125 mg/kg-treated cohort (n=5) and EC-18 250 mg/kg (n=5). The mice were intraperitoneally (i.p.) injected once with 100 mg/kg 5-FU to induce neutropenia, as shown in the experimental scheme (FIG. 46A). EC-18 was suspended in phosphate-buffered saline (PBS) and orally administrated at a dose of 125 or 250 mg/kg once a day, starting on the same day of 5-FU injection. The control cohort was administered PBS only during the experiment. The whole blood was collected from the orbital sinuses using EDTA-free capillary tubes (Kimble Chase Life Science and Research Products LLC, FL, USA) and collection tubes containing K3E-K3EDTA (Greiner Bio-One International, Kremsmünster, Austria). The blood cells were counted and classified by complete blood count (CBC) analysis using Mindray BC-5000 auto-hematology analyzer (Shenzhen Mindray Biomedical Electronics, Guangdong Sheng, China).
The results were expressed as the mean±standard deviation (SD). Statistical analysis was performed using a Student's paired t-test and p values <0.05 were considered statistically significant. A […] Log-rank (Mantel-Cox) test was used to compare the duration of neutropenia and time to recovery from neutropenia between control and EC-18-treated cohorts.

`CCCCC/C=C\C/C=C\CCCCCCCC(=O)OC(COC(C)=O)COC(=O)CCCCCCCCCCCCCCC` (racemic) [PLAG, 1-palmitoyl-2-linoleoyl-3-acetylglycerol] was tested, and the “Mean Duration of Severe Neutropenia in Days (±SE, range)” value (EC-18 125 mg/kg) was 2 (6-7) Days, the “Mean Number of Days to Recovery - ANC ≥ 500/μL (±SE, range)” value (EC-18 125 mg/kg) was 7.4 ± 0.55 (7-8) Days and the “Mean Number of Days to Recovery - ANC ≥ 1000/μL (±SE, range)” value (EC-18 125 mg/kg) was 8 ± 1.22 (7-10) Days. For the same compound, the “Number of Individuals of Severe Neutropenia (ANC <100 cells/μL)” value (EC-18 125 mg/kg) was 1/5, the “Mean Duration of Neutropenia in Days (±SE, range)” value (EC-18 125 mg/kg) was 2.6 ± 0.55 (5-8) Days and the “Mean the First Day Neutropenia (ANC <500 cells/μL) (±SE, range)” value (EC-18 125 mg/kg) was 5.8 ± 0.45 (5-6) days. For the same compound, the “Nadir of ANC” value (EC-18 125 mg/kg, 125 mg/kg) was 236±4.47 cells/μL and 236 ± 121.57 cells/μL, the “Mean Duration of Severe Neutropenia in Days (±SE, range)” value (EC-18 250 mg/kg) was 2 (6-7) Days and the “Mean Number of Days to Recovery - ANC ≥ 500/μL (±SE, range)” value (EC-18 250 mg/kg) was 7.6 ± 0.55 (7-8) Days. The “Mean Number of Days to Recovery - ANC ≥ 1000/μL (±SE, range)” value (EC-18 250 mg/kg) was 8.8 ± 1.09 (7-10) Days, the “Number of Individuals of Severe Neutropenia (ANC <100 cells/μL)” value (EC-18 250 mg/kg) was 1/5 and the “Mean Duration of Neutropenia in Days (±SE, range)” value (EC-18 250 mg/kg) was 3.0 ± 0.71 (5-8) Days. For the same compound, the “Mean the First Day Neutropenia (ANC <500 cells/μL) (±SE, range)” value (EC-18 250 mg/kg) was 5.8 ± 0.45 (5-6) days, the “Nadir of ANC” value (EC-18 250 mg/kg, 250 mg/kg) was 158±11.32 cells/μL and the “time of recovery to an ANC≥500 or 1000 cells/μL” value (EC-18 125 and 250 mg/kg-treated cohorts) was “significantly reduced”. The “5-FU-induced reduction of blood monocytes” value (EC-18 125 or 250mpk) was “remarkably mitigated”, the “duration of severe neutropenia” value (EC-18, dose not split in text) was 2 days and the “individuals that experienced severe neutropenia (ANC<100 cells/μL)” value (both EC-18 125 and 250 mg/kg-treated cohorts) was 20%.
